The target of test [1] is T1, human MCP-1 binding to THP-1 cells (Homo sapiens, UniProt P41597).
T1 construct: endogenous in cells; host or cells: THP-1 (whole cells)
T1 sequence (P41597 1-360 isoform P41597-2): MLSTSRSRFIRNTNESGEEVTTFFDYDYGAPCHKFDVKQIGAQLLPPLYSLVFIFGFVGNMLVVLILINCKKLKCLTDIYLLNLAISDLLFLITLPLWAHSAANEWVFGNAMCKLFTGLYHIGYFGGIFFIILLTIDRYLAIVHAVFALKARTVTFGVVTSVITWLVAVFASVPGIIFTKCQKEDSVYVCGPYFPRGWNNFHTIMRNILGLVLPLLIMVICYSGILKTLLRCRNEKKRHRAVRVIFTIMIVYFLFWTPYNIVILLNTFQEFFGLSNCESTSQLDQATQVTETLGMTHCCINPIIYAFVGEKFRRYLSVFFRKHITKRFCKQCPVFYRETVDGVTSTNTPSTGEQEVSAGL
The test is described as follows: Inhibitory activity against binding of [125I]-labeled human MCP-1 to THP-1 cells (method 2). The conditions noted are these: concentration of 1 μM. The source says: Two kinds of DNA synthetic primers (5′-[…]-3′ (SEQ ID NO:1) and 5′-[…]-3′) (SEQ ID NO:2) having restriction enzyme recognition sites applied on the basis of the known human MCP-1 gene sequence (see, for example, Yoshimura, T. et al. FEBS Letters 1989, 244, 487-493) were used to amplify a cDNA derived from human vascular endothelial cells (purchased from Kurabow) according to a PCR method. The amplified fragment was cleaved with restriction enzymes (PstI and XbaI) and then ligated into a transfer vector pVL1393 (Invitrogen Co.). The resulting vector was co-transfected with an infectious baculovirus into Sf-9 insect cells. Human MCP-1 gene recombinant baculoviruses were isolated from the obtained supernatant by a plaque assay method.
According to the method of Ishii, K. et al. (see Biochemical and Biophysical Research Communications, 1995, 206, 955-961), 5×10^6 cells of Sf-9 insect cells were infected with 5×10^7 PFU (plaque-forming units) of the above human MCP-1 gene recombinant baculoviruses and cultured in EX-CELL 401 medium for 7 days. The resulting culture supernatant was affinity purified by a heparin-Sepharose column (Pharmacia Co.) and then subjected to reverse phase HPLC (Vydac C18 column) to afford a purified human MCP-1. The protein labeling of the resulting purified human MCP-1 was requested for Amersham Co. to obtain a [^125I]-labeled human MCP-1 expressed with baculovirus (specific activity: 2000 Ci/mmol) prepared by the Bolten Hunter method. The resulting [^125I]-labeled human MCP-1 was used for the following tests.
THP-1 cells which are human monocytic leukemia cell line were suspended in an assay buffer (containing 50 mM of HEPES, 11.0 mM of CaCl2, 5.0 mM of MgCl2 and 0.5% of BSA at pH 7.4) so as to provide 1×10^7 cells/mL to thereby obtain a cell suspension. A solution obtained by diluting the test compound with the assay buffer was used as a test compound solution. A solution prepared by diluting the above [^125I]-labeled human MCP-1 expressed with baculovirus with the assay buffer so as to provide 1 μCi/mL was used as a labeled ligand solution. In a 96-well filter plate (Millipore Co.), were aliquoted 25 μL of the test compound solution, 25 μL of the labeled ligand solution and 50 μL of the cell suspension in the order mentioned for each well. The solutions were stirred (100 μL of the reaction solution) and then incubated at 18° C. for 1 hour.
After completing the reaction, the reaction solution was filtered through a filter, and the filter was washed with 200 μL of cold PBS twice (the reaction solution was filtered after adding 200 μL of the cold PBS). The filter was air-dried, and […] of liquid scintillator was then added by into each well to count the radioactivity retained by the cells on the filter using TopCount (Packard Instrument Co.). The count when 100 ng of the above human MCP-1 expressed with baculovirus(unlabeled) instead of the test compound was added was subtracted as nonspecific adsorption, and the count when the test compound was not added was 100%. Thereby, the inhibitory activity of the test compound against binding of the human MCP-1 to THP-1 cells was calculated. Inhibition ratio (%)={1−(A−B)/(C−B)}×100 (wherein A is the count when the test compound is added; B is the count when 100 ng of the unlabeled human MCP-1 is added; C is the count when only the [^125I]-labeled human MCP-1 is added).

The next test deals with THP-1 cells. Briefly: Inhibitory activity against cell chemotaxis caused by MCP-1. The format is cell-based. Particulars: Homo sapiens, MCP-1 20 ng/mL. The source says: In order to determine the inhibitory activity of the compounds according to the present invention against the cell chemotaxis, human monocytic leukemia cell line THP-1 was used as chemotactic cells according to the method of Fall et al. (J. Immunol. Methods, 1980, 33, 239-247) to determine the cell chemotaxis caused by monocyte chemotactic factor MCP-1 as follows: Namely, 2×10^6 cells/mL of the THP-1 cells [suspended in RPMI-1640 (Flow Laboratories Co.) 10% FCS] were placed in the upper chamber (200 μL) of a 96-well microchemotaxis chamber (Neuroprobe®), and human recombinant MCP-1 (Peprotech Co.) diluted with the same solution so as to provide the final concentration of 20 ng/mL was placed in the lower chamber (35 μL). A polycarbonate filter (PVP-free, Neuroprobe®) was placed between the two chambers. These were incubated in the presence of 5% of CO2 at 37° C. for 2 hours.
The filter was removed, and the cells which had migrated to the undersurface of the filter were immobilized, stained using Diff Quick (Kokusai Shiyaku Co.) and then measured at a measuring wavelength of 550 nm using a plate reader (Molecular Device Co.) to determine the means of 3 wells. Thereby, the indication of the number of cells migrated was obtained. The test compound together with the THP-1 cells was added to the upper chamber at various concentrations to determine the inhibitory activity against cell chemotaxis [degree of inhibition: IC50 (μM)].

The subject of test [2] is chronic relapsing experimental allergic encephalomyelitis. Briefly: Chronic relapsing experimental allergic encephalomyelitis in mice. The format is in vivo, SJL/J×PL/J F1 mice. Particulars: for Onset Date, First Attack: SJL/J×PL/J F1 mice; for Onset Date, First Attack / Duration of Clinical Sign, First Attack / Onset Date, Second Attack (Relapse): to 41 days after injection of the emulsion; for Maximal Clinical Score, First Attack / Maximal Clinical Score, Second Attack (Relapse): score 0-5, to 41 days after injection of the emulsion.

For test [3], the system named is glomerulonephritis induced by anti-glomerular basement membrane serum. Briefly: Masugi's nephritis model in WKY rats. The format is in vivo. The conditions noted are these: 100 mg/kg orally twice a day. As for the experimental part: Rabbits were immunized with a trypsin fraction of rat kidney cortex to provide an anti-glomerular basement membrane serum which was intravenously injected to 4-weeks-old female WKY rats (Charles River) in a dose of 2.5 mL/kg body weight to induce glomerulonephritis. After injection of the antiserum, urine of each animal was collected for 24 hours with metabolic cages for rats (Clea Japan, Inc.) on the 1st, 4th, 7th, 10th and 14th days after the injection. The amount of the urine was measured by urine weight and the protein content in the urine was measured by using a kit for assaying proteins in urine and cerebrospinal fluid (Tonein TP-II, Otsuka Pharmaceutical Co., Ltd.) to determine the amount of proteins excreted in urine per day. Serum of the animals subjected to the experiments was collected on the 15th day after injecting the antiserum, and creatinine concentration in blood was measured with a creatinine assay kit (Autosera®), Daiichi Pure Chemicals Co., Ltd.) using a Hitach±7070 model autoanalyzer. The test compound was daily orally administered in a dose of 100 mg/kg body weight twice a day from the date of injecting the anti-glomerular basement membrane serum (about 10:00 a.m. and about 6:00 p.m. in Experiment 1 and about 10:00 a.m. and about 5:00 p.m. in Experiment 2). In the control group, only the solution (a 0.5% aqueous solution of sodium carboxymethylcellulose) was orally administered. The administration volume was 10 mL/kg body weight, and the number of animals (N) was 10.

Test [4] relates to collagen-induced arthritis. The test is described as follows: Collagen-induced arthritis in mice. The format is in vivo, DBA/1 mice.
The mark [5] stands for this setting: 100 mg/kg body weight orally, vs control.

Some results are limits rather than exact numbers.

For the compound `Nc1ccc(C(F)(F)F)cc1C(=O)NCC(=O)N[C@@H]1CCN(c2ccc3ocnc3c2)C1` [Compd. No. 2189, (R)-3-[[N-(2-amino-5-trifluoromethylbenzoyl)glycyl]amino]-1-(benz[d]oxazol-5-yl)pyrrolidine], the inhibition at 1 µM in test [1] is above 80%. Besides, the IC50 in the test with THP-1 cells is at most 100 nM.

Compound `COc1ncc(CN2CC[C@@H](NC(=O)CNC(=O)c3cc(C(F)(F)F)ccc3N)C2)c(OC)n1` [Compd. No. 2175, (R)-3-[[N-(2-amino-5-trifluoromethylbenzoyl)glycyl]amino]-1-(2,4-dimethoxypyrimidin-5-ylmethyl)pyrrolidine] came in with an inhibition at 1 µM in test [1] of 50 to 80%.

`Nc1ccc(C(F)(F)F)cc1C(=O)NCC(=O)N[C@@H]1CCN(Cc2ccc(Cl)cc2)C1` [Compd. No. 1583]: in test [2] (30 mg/kg body weight oral), the “Onset Date, First Attack” value is given as 12.3 ± 1.9; the “Maximal Clinical Score, First Attack” value is reported as 3.5 ± 0.9; the “Maximal Clinical Score, Second Attack (Relapse)” value was 3.7 ± 0.6; the “Duration of Clinical Sign, First Attack” value turned out to be 9.8 ± 3.3. The “Onset Date, Second Attack (Relapse)” value in test [2] (30 mg/kg body weight oral) came to 26.3 ± 3.4. Further, in test [2] (30 mg/kg body weight orally, vs control), the “onset date, symptoms and onset period at the first attack” value is reported as “distinct effects on the items were not found”. In test [2] (100 mg/kg body weight oral), the “Onset Date, First Attack” value was 13.6 ± 2.0; the “Maximal Clinical Score, First Attack” value is 2.4 ± 1.3; the “Maximal Clinical Score, Second Attack (Relapse)” value turned out to be 3.0 ± 0.9; the “Duration of Clinical Sign, First Attack” value is 5.7 ± 3.8. In addition, in test [2] (100 mg/kg body weight oral), the “Onset Date, Second Attack (Relapse)” value stood at 28.5 ± 4.7. In test [2] (setting [5]), the “onset date at the first attack” value is listed as “tendency to delay the onset date (no significant difference)”, the “onset period at the first attack” value is listed as “shortening of onset period (p<0.05)” and the “symptoms (clinical scores) at the first attack” value was “symptom inhibition (p<0.05)”. Moreover, the “inhibition of the concentration of urinary proteins” value (from here on “inhibition … of urinary proteins”) in test [3] (7th day after antiserum, vs control) was 26%. In test [3] (10th day after antiserum, vs control), the “inhibition … of urinary proteins” value is on record as 51%. Besides, the “inhibition … of urinary proteins” value in test [3] (14th day after antiserum, vs control) is on record as 54%. Further, the “decrease of creatinine concentration in blood” value in test [3] (15th day after antiserum, vs control) is listed as 20%. Moreover, in test [3] (on the 15th Day), the “Serum Creatinine Concentration” value stood at 0.39 ± 0.03 mg/dL. In test [4] (knee joint, oral 12 weeks), the “chondrolysis of articular cartilages” value was “significantly inhibited”, the “osteolysis of subchondral bone” value was “significantly inhibited” and the synovial hyperplasia entry is “significantly inhibited”. Further, the arthritis scores result in test [4] (orally once a day for 12 weeks, vs control group) is “significantly inhibited arthritis scores”.

`Cc1ccc(C(=O)NCC(=O)NCC2CCN(Cc3ccc(Cl)cc3)CC2)cc1Br` [Compd. No. 1113, 4-[[N-(3-bromo-4-methylbenzoyl)glycyl]aminomethyl]-1-(4-chlorobenzyl)piperidine] had an inhibition at 1 µM in test [1] of 50 to 80%.

As for `Cc1noc(C)c1N1CCC(CNC(=O)CNC(=O)c2cc(F)c(F)cc2N)CC1` [Compd. No. 2131, 4-[[N-(2-amino-4,5-difluorobenzoyl)glycyl]aminomethyl]-1-(3,5-dimethylisoxazol-4-yl)piperidine], the inhibition at 1 µM in test [1] was in the range of 20 to 50%.

As for `COc1ccc(CN2CCC(CNC(=O)CNC(=O)c3cccc(C(F)(F)F)c3)CC2)cc1O` [Compd. No. 1452, 1-[3-hydroxy-4-methoxybenzyl]-4-[[N-(3-(trifluoromethyl)benzoyl)glycyl]aminomethyl]piperidine], the inhibition at 1 µM in test [1] was in the range of 20 to 50%.

As to `Nc1cc(F)c(F)cc1C(=O)NCC(=O)NCC1CCN(c2ccc3nonc3c2)CC1` [Compd. No. 2130, 4-[[N-(2-amino-4,5-difluorobenzoyl)glycyl]aminomethyl]-1-(benzo[c]furazan-5-yl)piperidine], the inhibition at 1 µM in test [1] fell in the range of 20 to 50%.

In test [1], `Nc1ccc(Cl)cc1C(=O)NCC(=O)N[C@@H]1CCN(Cc2ccc(Cl)cc2)C1` [Compd. No. 1084, (R)-1-(4-chlorobenzyl)-3-[[N-(2-amino-5-chlorobenzoyl)glycyl]amino]pyrrolidine] displayed an inhibition at 1 µM of 50 to 80%.

On to `COCCNC(=O)c1ccc(CN2CCC(CNC(=O)CNC(=O)c3cccc(C(F)(F)F)c3)CC2)cc1` [Compd. No. 1612, 1-[4-[N-(2-methoxyethyl)carbamoyl]benzyl]-4-[[N-(3-(trifluoromethyl)benzoyl)glycyl]aminomethyl]piperidine], for which, in test [1], the inhibition at 1 µM was in the range of 20 to 50%.

One may read the inhibition as how much of the control response was suppressed. Lower therefore signals little suppression. In general, IC50 refers to the midpoint of a concentration-inhibition curve.

For the origin of these results see patent publication US7390830B1, “Remedies or prophylactics for diseases in association with chemokines” (Teijin Limited, priority 1999, dated 2008).
